Earlier results as cited in patent publication US9932302B1, “N-phenyl and N-benzyl enaminones and methods for using same” (University of Maryland Eastern Shore, priority 2013, dated 2018).

Legend:
Conditions in all cases: pre-clinical pharmacological profile
[1] = test system: subcutaneous Metrazol (sc Met) induced seizure
[2] = test system: maximal electroshock seizure (MES)
6 Hz psychomotor seizure = test system: 6 Hz psychomotor seizure

Row | Structure (SMILES) | scPTZ activity profile of current AED [1] | MES activity profile of current AED [2] | 6 Hz activity profile of current AED (6 Hz psychomotor seizure)
1 | O=C1NC(=O)C(c2ccccc2)(c2ccccc2)N1 [phenytoin] | active | active | –
2 | CC[C@@H](C(N)=O)N1CCCC1=O [levetiracetam] | – | – | active
